Publication PMC4541002, “Quantification of Niacin and Its Metabolite Nicotinuric Acid in Human Plasma by LC-MS/MS: Application to a Clinical Trial of a Fixed Dose Combination Tablet of Niacin Extended-Release/Simvastatin (500 mg/10 mg) in Healthy Chinese Volunteers” (International Journal of Analytical Chemistry, 2015)
Read-outs that look alike come from different tables or passages of the source.

Legend:
[1] = Pharmacokinetics of NA and NUA in plasma after single oral doses of Niacin extended-release/Simvastatin tablets in healthy Chinese volunteers; assay type: in vivo; conditions: for CLz/F: human plasma; for AUC(0-t) / AUC(0-inf) / Tmax / half-life / Cmax / k el / MRT last / Vd/F: both sexes, human, plasma, po; for k el: n = 12, read-out: K e (converted); for MRT last: n = 12, read-out: MRT0–t; for Vd/F: n = 12, read-out: V z/F
Protocol: Extraction of NA and NUA was carried out by protein precipitation. First, 50 μL of the IS working solution (1000 ng/mL 5-FU) and 50 μL of water were added to a 100 μL aliquot of human plasma. The sample mixture was then deproteinized with 250 μL of acetonitrile, and the precipitate was removed by centrifugation at 15000 rpm for 10 min. The supernatant was transferred to another tube and evaporated under a gentle stream of nitrogen at 40°C until it is dry. The residue was reconstituted in 150 μL mobile phase and vortex-mixed for 30 sec. An aliquot of 40 μL of the solution was injected into the LC-MS/MS system for analysis.
Before conducting the study all subjects provided written informed consent to participate. The study was designed as randomized, open-label, crossover, and single dose periods with a 7-day washout between each treatment. A total of 12 healthy Chinese volunteers (6 males and 6 females) aged 20 to 35 years with a body mass index between 19 and 24 kg/m^2 were recruited. Subjects were randomized into three groups (2 males and 2 females for each treatment). They were orally dosed with Niacin extended-release/Simvastatin 1, 2, and 3 tablets once daily, separately. The venous blood samples were collected at time intervals (0, 0.33, 0.66, 1.0, 1.5, 2.0, 2.5, 3.0, 3.5, 4.0, 5.0, 6.0, 8.0, 12, and 24 h) in separate vacutainers during the treatment. All blood samples were centrifuged at 3000 ×g for 10 min and the plasma was separated and kept frozen at −20°C until analysis.
The pharmacokinetic parameters were calculated with data analysis system (DAS) program (version 2.0, Mathematical Pharmacology Professional Committee, Shanghai, China). The maximum plasma concentration (C max) and the corresponding time (T max) were obtained from observed data. The terminal elimination rate constant (K e) was estimated with least-squares regression of values in the terminal log-linear region of plasma concentration-time curves, and the terminal elimination half-life (t 1/2) was calculated to be 0.693/K e. The area under the curve from time zero to the last sampling time (AUC0−t) was determined using the linear trapezoidal rule.

[2] = Stability of stock solutions of NA and NUA; assay type: physicochemical
Protocol: Two separate stock solutions of the analytes were prepared at 1 mg/mL in methanol-water (50 : 50, v/v) and stored at −20°C. A series of standard working solutions for NA and NUA were prepared by diluting stock solution with methanol-water (50 : 50, v/v). The 5-FU solution was brought to a final concentration of 1000 ng/mL in acetonitrile from 1 mg/mL in acetonitrile. All working solutions were stored at 4°C and brought to room temperature before use. Calibration standards and quality control samples were prepared by spiking 50 μL of the working solutions and 50 μL of IS into 100 μL of drug-free human plasma. Matrix-matched NA and NUA calibration standards were prepared in plasma at concentrations of 5, 10, 20, 60, 200, 600, and 800 ng/mL, respectively. Similarly, NA and NUA quality control (QC) samples were prepared separately in plasma to give concentrations of 10, 60, and 600 ng/mL.

[3] = for Found C / Found R.E.: n = 3
Protocol: The following stability tests were evaluated: (1) stability of the stock solutions of the analytes; (2) freeze and thaw stability of the analytes in the plasma from −20°C to room temperature for three cycles; (3) short-term stability of the analytes in plasma at room temperature before extraction for 3 h and the ready-to-inject samples (after extraction, in the mobile phase) to the autosampler rack for 4 h; and (4) long-term stability of the analytes in matrix stored at −20°C for two months. All stability tests samples at three concentration levels (10, 60, and 600 ng/mL) were analyzed in triplicate and the deviations were determined in relation to freshly prepared samples.

[4] = 1 tablet (500 mg/10 mg), mean ± S.D., n = 12
[5] = 2 tablets (1000 mg/20 mg), mean ± S.D., n = 12
[6] = 3 tablets (1500 mg/30 mg), mean ± S.D., n = 12
[7] = 1 tablet (500 mg/10 mg), mean ± S.D.
[8] = 2 tablets (1000 mg/20 mg), mean ± S.D.
[9] = 3 tablets (1500 mg/30 mg), mean ± S.D.
[10] = extracted plasma sample in mobile phase, autosampler for 4 h (24°C), added 10.0 ng/mL
[11] = extracted plasma sample in mobile phase, autosampler for 4 h (24°C), added 60.0 ng/mL
[12] = extracted plasma sample in mobile phase, autosampler for 4 h (24°C), added 600.0 ng/mL
[13] = human plasma, long-term (2 months at −20°C), added 10.0 ng/mL
[14] = human plasma, long-term (2 months at −20°C), added 60.0 ng/mL
[15] = human plasma, long-term (2 months at −20°C), added 600.0 ng/mL
[16] = human plasma, short-term (3 h at 24°C), added 10.0 ng/mL
[17] = human plasma, short-term (3 h at 24°C), added 60.0 ng/mL
[18] = human plasma, short-term (3 h at 24°C), added 600.0 ng/mL
[19] = human plasma, three freeze/thaw cycles, added 10.0 ng/mL
[20] = human plasma, three freeze/thaw cycles, added 60.0 ng/mL
[21] = human plasma, three freeze/thaw cycles, added 600.0 ng/mL

Question: For `O=C(O)c1cccnc1` [NA, 3-pyridine-carboxylic acid], which CLz/F [1, 4] is on record?
Answer: Its CLz/F is 1271 ± 850.0 L/h.

Question: And the CLz/F [1, 5]?
Answer: The CLz/F was 744.0 ± 356.0 L/h.

Question: And the CLz/F [1, 6]?
Answer: The CLz/F was 526.0 ± 421.0 L/h.

Question: And the AUC(0-t) ([1]; 1 tablet)?
Answer: Its AUC(0-t) is 349 ± 192 ng·h/mL.

Question: What about the AUC(0-inf) [1, 4] of the same molecule?
Answer: The AUC(0-inf) was 518 ± 226 ng·h/mL.

Question: What about the AUC(0-t) [1, 4] of the same molecule?
Answer: Its AUC(0-t) is 385 ± 192 ng·h/mL.

Question: What about the Tmax [1, 4] of the same molecule?
Answer: Its Tmax is 2.94 ± 2.63 h.

Question: And the half-life [1, 4]?
Answer: The half-life was 8.8 ± 8.49 h.

Question: And the Cmax ([1]; 1 tablet (500 mg/10 mg), mean ± S.D., n = 12, read-out: C max)?
Answer: The Cmax was 160 ± 125 ng/mL.

Question: And the k el [1, 7]?
Answer: The k el was 5.28e-05 s⁻¹.

Question: What about the MRT last [1, 7] of the same molecule?
Answer: The MRT last was 5.37 ± 1.96 h.

Question: And the Vd/F [1, 7]?
Answer: The Vd/F was 13700 ± 11600 L.

Question: What about the Cmax ([1]; 1 tablet, read-out: mean maximum plasma concentration (C max)) of the same molecule?
Answer: Its Cmax is 160 ± 125 ng/mL.

Question: What about the AUC(0-t) ([1]; 2 tablets) of the same molecule?
Answer: The AUC(0-t) was 1540 ± 957 ng·h/mL.

Question: What about the AUC(0-inf) [1, 5] of the same molecule?
Answer: The AUC(0-inf) was 1720 ± 923 ng·h/mL.

Question: And the AUC(0-t) [1, 5]?
Answer: The AUC(0-t) was 1540 ± 957 ng·h/mL.

Question: What about the Tmax [1, 5] of the same molecule?
Answer: The Tmax was 1.82 ± 1.69 h.

Question: What about the half-life [1, 5] of the same molecule?
Answer: The half-life was 7.33 ± 8.68 h.

Question: And the Cmax ([1]; 2 tablets (1000 mg/20 mg), mean ± S.D., n = 12, read-out: C max)?
Answer: The Cmax was 904 ± 487 ng/mL.

Question: And the k el [1, 8]?
Answer: The k el was 0.000119 s⁻¹.

Question: What about the MRT last [1, 8] of the same molecule?
Answer: Its MRT last is 4.4 ± 2.21 h.

Question: What about the Vd/F [1, 8] of the same molecule?
Answer: The Vd/F was 7650 ± 9320 L.

Question: And the Cmax ([1]; 2 tablets, read-out: C max)?
Answer: Its Cmax is 904 ± 487 ng/mL.

Question: And the AUC(0-t) ([1]; 3 tablets)?
Answer: Its AUC(0-t) is 6020 ± 6580 ng·h/mL.

Question: And the AUC(0-inf) [1, 6]?
Answer: The AUC(0-inf) was 6100 ± 6550 ng·h/mL.

Question: And the AUC(0-t) [1, 6]?
Answer: The AUC(0-t) was 6020 ± 6580 ng·h/mL.

Question: And the Tmax [1, 6]?
Answer: Its Tmax is 2.42 ± 1.64 h.

Question: And the half-life [1, 6]?
Answer: The half-life was 5.4 ± 4.57 h.

Question: What about the Cmax ([1]; 3 tablets (1500 mg/30 mg), mean ± S.D., n = 12, read-out: C max) of the same molecule?
Answer: The Cmax was 2480 ± 1430 ng/mL.

Question: What about the k el [1, 9] of the same molecule?
Answer: The k el was 7.5e-05 s⁻¹.

Question: What about the MRT last [1, 9] of the same molecule?
Answer: The MRT last was 3.65 ± 1.33 h.

Question: What about the Vd/F [1, 9] of the same molecule?
Answer: Its Vd/F is 5200 ± 6650 L.

Question: And the Cmax ([1]; 3 tablets, read-out: C max)?
Answer: The Cmax was 2480 ± 1430 ng/mL.

Question: And the “R.E.% of response, stock solution stability” value ([2]; seven days at −20°C versus before)?
Answer: The value was −5.8%.

Question: And the “R.E.% of response, stock solution stability” value ([2]; six h at room temperature versus before)?
Answer: The value was −1.1%.

Question: And the “Found C” value [3, 10]?
Answer: Its value is 9.6 ng/mL.

Question: And the “Found R.E.” value [3, 10]?
Answer: The value was −3.7%.

Question: And the “Found C” value [3, 11]?
Answer: The value was 62.7 ng/mL.

Question: And the “Found R.E.” value [3, 11]?
Answer: The value was 4.5%.

Question: And the “Found C” value [3, 12]?
Answer: The value was 578.3 ng/mL.

Question: What about the “Found R.E.” value [3, 12] of the same molecule?
Answer: Its value is −3.6%.

Question: And the “Found C” value [3, 13]?
Answer: Its value is 9.6 ng/mL.

Question: What about the “Found R.E.” value [3, 13] of the same molecule?
Answer: Its value is −4.1%.

Question: What about the “Found C” value [3, 14] of the same molecule?
Answer: The value was 53.7 ng/mL.

Question: And the “Found R.E.” value [3, 14]?
Answer: Its value is −10.6%.

Question: What about the “Found C” value [3, 15] of the same molecule?
Answer: The value was 595.3 ng/mL.

Question: What about the “Found R.E.” value [3, 15] of the same molecule?
Answer: The value was −0.8%.

Question: What about the “Found C” value [3, 16] of the same molecule?
Answer: The value was 9.1 ng/mL.

Question: And the “Found R.E.” value [3, 16]?
Answer: Its value is −8.9%.

Question: And the “Found C” value [3, 17]?
Answer: Its value is 58.8 ng/mL.

Question: And the “Found R.E.” value [3, 17]?
Answer: The value was −2.1%.

Question: What about the “Found C” value [3, 18] of the same molecule?
Answer: Its value is 636.3 ng/mL.

Question: What about the “Found R.E.” value [3, 18] of the same molecule?
Answer: Its value is 6.0%.

Question: What about the “Found C” value [3, 19] of the same molecule?
Answer: The value was 9.5 ng/mL.

Question: And the “Found R.E.” value [3, 19]?
Answer: The value was −4.6%.

Question: And the “Found C” value [3, 20]?
Answer: Its value is 58.0 ng/mL.

Question: What about the “Found R.E.” value [3, 20] of the same molecule?
Answer: The value was −3.28%.

Question: And the “Found C” value [3, 21]?
Answer: Its value is 546.3 ng/mL.

Question: And the “Found R.E.” value [3, 21]?
Answer: The value was −9.0%.

Question: What about the “stability in human plasma” value ([3]; variety of storage and process conditions (Tables 2 and 3)) of the same molecule?
Answer: Its value is “did not reveal any significant degradation”.
